The text below walks through data of patent US6326369A, “Bicyclic quinone compounds, their production and use” (Takeda Chemicals Industries, Ltd., priority 1997, dated 2001).

Like-named read-outs stand apart in the source and are kept apart here.

The test deals with Brain Homogenate. Nature of the test: Peroxylipid formation inhibiting effect in brain homogenate (thiobarbituric acid (TBA) method). The note with it: 37° C., 30 minutes, pH 7.4. Format: biochemical, Wistar rats (male, 12-week old). The protocol:
JC1:Wistar rats (male, 12-week old) were used as test animals. The rats were sacrificed by decapitation, and the brain was quickly removed and homogenized with 10 ml of 10 mM Tris-HCl buffer (pH 7.4) containing 150 mM KCl. The resulting homogenate was centrifuged at 2,200 rpm, at 4° C., for 10 minutes, and the supernatant was used in the test. 250 μl of the supernatant was put into a 96-well plate, to which was added a test compound and incubated at 37° C. for 30 minutes.
The concentration of glutamic acid and succinic acid, if added prior to the incubation, was 5.0 mM and 2.5 mM, respectively.
To determine the amount of the peroxylipid formed, used was a thiobarblturic acid (TBA) method. Briefly, 50 μl of 35% perchloric acid was added to the incubated mixture, which was then centrifuged at 2,000 rpm, at 4° C., for 10 minutes. The resulting supernatant was transferred into a different 96-well plate in an amount of 200 μl/well. 100 μl/well of TBA (5 mg/ml TBA in 50% acetic acid) was added thereto, and reacted at 80° C. for 1 hour. Then, the reaction mixture was cooled to room temperature, and its absorbance at 532 nm was measured.
On the other hand, a calibration curve was prepared using tetraethoxypropane which is a […] for TBA. In the same manner, the peroxylipid concentration in a sample that had been incubated for 30 minutes in the absence of the test compound, and also the peroxylipid concentration in a sample to which had been added 35% perchloric acid prior to the incubation (in the absence of the test compound) were also obtained. The inhibition percentage was calculating according to the following equation. The 50% inhibitory concentration (IC50) was obtained, using a log-probit method.
Inhibition Percentage (%)=[(C-A)/(C-B)]×100
A: Peroxylipid concentration in the sample to which was added the test compound;
B: Peroxylipid concentration in the sample to which was added 35% perchloric acid prior to the incubation;
C: Peroxylipid concentration in the sample to which was not added the test compound.

[1] abbreviates: brain homogenate only, read-out: Peroxylipid Formation Inhibiting Effect (IC50) Brain Homogenate Only.
The mark [2] stands for this setting: glutamic acid 5.0 mM and succinic acid 2.5 mM added prior to incubation, read-out: Peroxylipid Formation Inhibiting Effect (IC50) Glutamic Acid and Succinic Acid Added.

The term IC50 denotes the midpoint of a concentration-inhibition curve.

With `COC1=C(OC)C(=O)C2=C(CC(CCCCCCCCO)C2)C1=O` [Ex. 10, 2-(8-Hydroxyoctyl)-5,6-dimethoxyindan-4,7-dione], the IC50 is, setting by setting: under setting [1], 1100 nM; under setting [2], 170 nM.

Consider `CCOC(=O)CCCCCCCC1CC2=C(C1)C(=O)C(OC)=C(OC)C2=O` [Ex. 9, Ethyl 8-(5,6-dimethoxy-4,7-dioxoindan-2-yl)octanoate], for which the IC50 runs as follows: under setting [1], 2300 nM; under setting [2], 940 nM.
